Data reported in patent publication US20190367516A1 (Bayer Pharma Aktiengesellschaft, priority 2015, published 2019).

Key:
human M2 receptor [1] = biological target: T1, human M2 receptor (Homo sapiens, UniProt P08172); type: cell-based; details: shift of acetylcholine dose-response curve (Allosteric EC50 shift); α >1 = positive cooperativity
T1 sequence (P08172 1-466): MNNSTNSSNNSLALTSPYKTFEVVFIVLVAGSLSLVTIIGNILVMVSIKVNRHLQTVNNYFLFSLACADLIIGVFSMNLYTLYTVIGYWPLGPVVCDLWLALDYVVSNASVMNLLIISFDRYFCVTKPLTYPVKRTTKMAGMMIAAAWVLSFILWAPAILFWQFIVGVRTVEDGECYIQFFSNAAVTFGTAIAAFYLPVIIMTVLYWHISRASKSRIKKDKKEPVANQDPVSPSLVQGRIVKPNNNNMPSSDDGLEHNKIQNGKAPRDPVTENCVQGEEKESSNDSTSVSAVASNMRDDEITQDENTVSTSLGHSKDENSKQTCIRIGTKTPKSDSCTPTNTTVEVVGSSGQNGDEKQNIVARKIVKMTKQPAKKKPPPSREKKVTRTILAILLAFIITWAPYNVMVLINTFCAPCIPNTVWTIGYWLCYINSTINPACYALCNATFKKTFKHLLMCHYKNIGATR

human M2 receptor [2] = biological target: T1, human M2 receptor; details: M2-GIRK1/4 reporter cells; for EC50: Receptor activity EC50, allosteric potency at EC20 acetylcholine, in some cases mean of two or more determinations; for Emax: read-out: Efficiency, boosting of the acetylcholine effect at EC20 acetylcholine concentration

SMILES | Cooperativity (alpha factor) (human M2 receptor [1]) | EC50 (human M2 receptor [2]) [nM] | Emax (human M2 receptor [2]) [%]
O=C(N[C@@H](C1CC1)C(F)(F)F)c1cn(-c2c(F)cc(F)cc2F)c2nc(N3CCC(CO)(CO)CC3)ccc2c1=O [Example 489, 7-[4,4-Bis(hydroxymethyl)piperidin-1-yl]-N-[(1S)-1-cyclopropyl-2,2,2-trifluoroethyl]-4-oxo-1-(2,4,6-trifluorophenyl)-1,4-dihydro-1,8-naphlthyridine-3-carboxamide] | 23 | 27 | 100
C[C@H](O)CN(C)c1ccc2c(=O)c(C(=O)N[C@@H](C3CC3)C(F)(F)F)cn(-c3c(F)cc(F)cc3F)c2n1 [Example 493] | 14 | 16 | 94.5
C[C@@H](O)CN(C)c1ccc2c(=O)c(C(=O)N[C@@H](C3CC3)C(F)(F)F)cn(-c3c(F)cc(F)cc3F)c2n1 [Example 494] | 20 | 28 | 78
CC[C@H](NC(=O)c1cn(-c2c(F)cc(F)cc2F)c2nc(N3CC(CO)(CO)C3)ccc2c1=O)C(F)(F)F [Example 503, 7-[3,3-Bis(hydroxymethyl)azetidin-1-yl]-4-oxo-N-[(2S)-trifluorobutan-2-yl]-1-(2,4,6-trifluorophenyl)-1,4-dihydro-1,8-naphthyridine-3-carboxamide] | 24 | 28 | 88.5
CC(C)(NC(=O)c1cn(-c2c(F)cc(F)cc2F)c2nc(N3C[C@@H](O)CC3=O)ccc2c1=O)C(F)F [Example 516, N-(1,1-Difluoro-2-methylpropan-2-yl)-7-[(4S)-4-hydroxy-2-oxopyrrolidin-1-yl]-4-oxo-1-(2,4,6-trifluorophenyl)-1,4-dihydro-1,8-naphthyridine-3-carboxamide] | 35 | 20 | 100
COC(=O)N1CCN(c2ccc3c(=O)c(C(=O)Nc4c(Cl)cccc4Cl)cn(-c4c(F)cc(F)cc4F)c3n2)CC1 [Example 593, Methyl 4-{6-[(2,6-dichlorophenyl)carbamoyl]-5-oxo-8-(2,4,6-trifluorophenyl)-5,8-dihydro-1,8-naphthyridin-2-yl}piperazine-1-carboxylate] | 29 | 17 | 89.5
CC[C@H](NC(=O)c1cn(-c2c(F)cc(F)cc2F)c2nc(N3CCN(C(=O)OC)CC3)ccc2c1=O)C(F)(F)F [Example 595, Methyl 4-[5-oxo-6-{[(2S)-1,1,1-trifluorobutan-2-yl]carbamoyl}-8-(2,4,6-trifluorophenyl)-5,8-dihydro-1,8-naphthyridin-2-yl]piperazine-1-carboxylate] | 36 | 19 | 94
O=C(NC1(C(F)(F)F)CCC1)c1cn(-c2c(F)cc(F)cc2F)c2nc(N3CCNC3=O)ccc2c1=O [Example 596, 4-Oxo-7-(2-oxoimidazolidin-1-yl)-N-[1-(trifluoromethyl)cyclobutyl]-1-(2,4,6-trifluorophenyl)-1,4-dihydro-1,8-naphthyridine-3-carboxamide] | 19 | 21 | 98.5
CC[C@@H](NC(=O)c1cn(-c2c(F)cccc2F)c2nc(N3C[C@@H](O)[C@H](O)C3)ccc2c1=O)C(F)(F)F [Example 618, 1-(2,6-Difluorophenyl)-7-[(3R,4R)-3,4-dihydroxypyrrolidin-1-yl]-4-oxo-N-[(2R)-1,1,1-trifluorobutan-2-yl]-1,4-dihydro-1,8-naphthyridine-3-carboxamide] | 30 | 39 | 99
O=C(Nc1c(Cl)cccc1Cl)c1cn(-c2ccc(F)cc2F)c2nc(N3C[C@@H](O)[C@H](O)C3)ccc2c1=O [Example 631, N-(2,6-Dichlorophenyl)-1-(2,4-difluorophenyl)-7-[(3R,4R)-3,4-dihydroxypyrrolidin-1-yl]-4-oxo-1,4-dihydro-1,8-naphthyridine-3-carboxamide] | 23 | 49 | 86
CC(C)(NC(=O)c1cn(-c2c(F)cc(F)cc2F)c2nc(N3C[C@@H](O)[C@H](O)C3)ccc2c1=O)C(F)F [Example 634, N-(1,1-Difluoro-2-methylpropan-2-yl)-7-[(3R,4R)-3,4-dihydroxypyrrolidin-1-yl]-4-oxo-1-(2,4,6-trifluorophenyl)-1,4-dihydro-1,8-naphthyridine-3-carboxamide] | 48 | 54 | 100
CC[C@@H](NC(=O)c1cn(-c2ccc(F)cc2F)c2nc(N3C[C@@H](O)[C@@H](O)C3)ccc2c1=O)C(F)(F)F [Example 639, 1-(2,4-Difluorophenyl)-7-[(3R,4S)-3,4-dihydroxypyrrolidin-1-yl]-4-oxo-N-[(2R)-1,1,1-trifluorobutan-2-yl]-1,4-dihydro-1,8-naphthyridine-3-carboxamide] | 25 | 68 | 96.5
CC[C@@H](NC(=O)c1cn(-c2ccc(F)cc2F)c2nc(N3C[C@@H](O)[C@H](O)C3)ccc2c1=O)C(F)(F)F [Example 646, 1-(2,4-Difluorophenyl)-7-[(3R,4R)-3,4-dihydroxypyrrolidin-1-yl]-4-oxo-N-[(2R)-1,1,1-trifluorobutan-2-yl]-1,4-dihydro-1,8-naphthyridine-3-carboxamide] | 30 | 74 | 100
CC[C@@H](NC(=O)c1cn(-c2c(F)cccc2F)c2nc(N3C[C@@H](O)[C@@H](O)C3)ccc2c1=O)C(F)(F)F [Example 648, 1-(2,6-Difluorophenyl)-7-[(3R,4S)-3,4-dihydroxypyrrolidin-1-yl]-4-oxo-N-[(2R)-1,1,1-trifluorobutan-2-yl]-1,4-dihydro-1,8-naphthyridine-3-carboxamide] | 49 | 81 | 96.5

These reach a lower EC50 (human M2 receptor [2]). Values come first.

Cooperativity (alpha factor) (human M2 receptor [1]) | EC50 (human M2 receptor [2]) [nM] | Emax (human M2 receptor [2]) [%] | SMILES
37 | 12 | 99.3 | O=C(NC1(C(F)(F)F)CCC1)c1cn(-c2c(F)cc(F)cc2F)c2nc(N3C[C@@H](O)CC3=O)ccc2c1=O [Example 515, 7-[(4S)-4-Hydroxy-2-oxopyrrolidin-1-yl]-4-oxo-N-[1-(trifluoromethyl)cyclobutyl]-1-(2,4,6-trifluorophenyl)-1,4-dihydro-1,8-naphthyridine-3-carboxamide]
57 | 12 | 100 | CC(C)C[C@H](NC(=O)c1cn(-c2c(F)cc(F)cc2F)c2nc(N3C[C@@H](O)[C@@H](O)C3)ccc2c1=O)C(F)(F)F [Example 573, 7-[(3R,4S)-3,4-Dihydroxypyrrolidin-1-yl]-4-oxo-N-[(2S)-1,1,1-trifluoro-4-methylpentan-2-yl]-1-(2,4,6-trifluorophenyl)-1,4-dihydro-1,8-naphthyridine-3-carboxamide]
36 | 12 | 100 | CC(C)C[C@@H](NC(=O)c1cn(-c2c(F)cc(F)cc2F)c2nc(N3C[C@@H](O)[C@@H](O)C3)ccc2c1=O)C(F)(F)F [Example 574, 7-[(3R,4S)-3,4-Dihydroxypyrrolidin-1-yl]-4-oxo-N-[(2R)-1,1,1-trifluoro-4-methylpentan-2-yl]-1-(2,4,6-trifluorophenyl)-1,4-dihydro-1,8-naphthyridine-3-carboxamide]
28 | 8 | 100 | CC(C)C[C@H](NC(=O)c1cn(-c2c(F)cc(F)cc2F)c2nc(N3CCNC3=O)ccc2c1=O)C(F)(F)F [Example 543, 4-Oxo-7-(2-oxoimidazolidin-1-yl)-N-[(2S)-1,1,1-trifluoro-4-methylpentan-2-yl)-1-(2,4,6-trifluorophenyl)-1,4-dihydro-1,8-naphthyridine-3-carboxamide]
27 | 7 | 100 | CO[C@H]1CCN(c2ccc3c(=O)c(C(=O)N[C@@H](C4CC4)C(F)(F)F)cn(-c4c(F)cc(F)cc4F)c3n2)C1 [Example 535, N-[(1 S)-1-Cyclopropyl-2,2,2-trifluoroethyl]-7-[(3S)-3-methoxypyrrolidin-1-yl]-4-oxo-1-(2,4,6-trifluorophenyl)-1,4-dihydro-1,8-naphthyridine-3-carboxamide]
21 | 7 | 86.5 | CCN1CCCN(c2ccc3c(=O)c(C(=O)N[C@@H](C4CC4)C(F)(F)F)cn(-c4c(F)cc(F)cc4F)c3n2)C1=O [Example 539, N-[(1S)-1-Cyclopropyl-2,2,2-trifluoroethyl]-7-(3-ethyl-2-oxotetrahydropyrimidin-1(2H)-yl)-4-oxo-1-(2,4,6-trifluorophenyl)-1,4-dihydro-1,8-naphthyridine-3-carboxamide]
47 | 4 | 100 | CC(C)(C)[C@H](NC(=O)c1cn(-c2c(F)cc(F)cc2F)c2nc(N3C[C@@H](O)CC3=O)ccc2c1=O)C(F)(F)F [Example 504, 7-[(4S)-4-Hydroxy-2-oxopyrrolidin-1-yl]-4-oxo-N-[(2S)-1,1,1-trifluoro-3,3-dimethylbutan-2-yl]-1-(2,4,6-trifluorophenyl)-1,4-dihydro-1,8-naphthyridine-3-carboxamide]
